Source: PubChem BioAssay AID256 (DTP/NCI, 2004)
Several values for one entry are separate records, joined by “and”; a condition that tells them apart may be missing. Equal values may be shown once. Inconclusive results and toxic doses are left out. Rule for the calls: active = survival T/C of 150% or more; inactive = T/C below 125% in these data.

System: CD2F1 mice, L1210 leukemia ip, survival T/C
Test: NCI In Vivo Anticancer Drug Screen. Data for tumor model L1210 Leukemia (intraperitoneal) in CD2F1 (CDF1) mice
Details: higher = longer survival
In short: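 Vehicle-treated tumor-bearing mice served as controls (C) for compound-treated mice (T). Reported figure is T divided by C.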

[1] = endpoint: mean survival time, dose: 100.0 mg/kg/injection, schedule: Q01DX009 (ip), vehicle: saline with Tween-80
[2] = endpoint: mean survival time, dose: 200.0 mg/kg/injection, schedule: Q01DX009 (ip), vehicle: saline with Tween-80
[3] = endpoint: mean survival time, dose: 400.0 mg/kg/injection, schedule: Q01DX009 (ip), vehicle: saline with Tween-80
[4] = endpoint: mean survival time, dose: 100.0 mg/kg/injection, schedule: Q04DX003 (ip), vehicle: saline with Tween-80
[5] = endpoint: mean survival time, dose: 100.0 mg/kg/injection, schedule: Q04DX003 (ip), vehicle: saline
[6] = endpoint: mean survival time, dose: 200.0 mg/kg/injection, schedule: Q04DX003 (ip), vehicle: saline
[7] = endpoint: mean survival time, dose: 400.0 mg/kg/injection, schedule: Q04DX003 (ip), vehicle: saline
[8] = endpoint: mean survival time, dose: 200.0 mg/kg/injection, schedule: Q04DX003 (ip), vehicle: saline with Tween-80
[9] = endpoint: mean survival time, dose: 400.0 mg/kg/injection, schedule: Q04DX003 (ip), vehicle: saline with Tween-80
[10] = endpoint: mean survival time, dose: 50.0 mg/kg/injection, schedule: Q04DX002 (ip), vehicle: saline with Tween-80
[11] = endpoint: mean survival time, dose: 100.0 mg/kg/injection, schedule: Q04DX002 (ip), vehicle: saline with Tween-80
[12] = endpoint: mean survival time, dose: 200.0 mg/kg/injection, schedule: Q04DX002 (ip), vehicle: saline with Tween-80
[13] = endpoint: mean survival time, dose: 400.0 mg/kg/injection, schedule: Q04DX002 (ip), vehicle: saline with Tween-80

Measured: T/C

C=C1[C@@H](C)[C@H]2[C@H](Cc3ccccc3)NC(=O)[C@]23OC(=O)/C=C/[C@H](O)CCC[C@@H](C)C/C=C/[C@H]3[C@@H]1O
inactive: endpoint: mean survival time, dose: 0.5 mg/kg/injection, schedule: Q04DX002 (ip), vehicle: Klucel (hydroxypropylcellulose) (HPC) 100 % of control | endpoint: mean survival time, dose: 1.0 mg/kg/injection, schedule: Q04DX002 (ip), vehicle: Klucel (hydroxypropylcellulose) (HPC) 103 % of control | endpoint: mean survival time, dose: 2.0 mg/kg/injection, schedule: Q04DX002 (ip), vehicle: Klucel (hydroxypropylcellulose) (HPC) 100 % of control | endpoint: mean survival time, dose: 4.0 mg/kg/injection, schedule: Q04DX002 (ip), vehicle: Klucel (hydroxypropylcellulose) (HPC) 103 % of control | endpoint: mean survival time, dose: 8.0 mg/kg/injection, schedule: Q04DX002 (ip), vehicle: Klucel (hydroxypropylcellulose) (HPC) 95 % of control

OC1(C2(O)CCCC2)CCCC1
inactive: [1] 105 % of control | [2] 111 % of control | [3] 103 % of control

CSC(=S)N/N=C(\C)c1ccccn1
inactive: endpoint: mean survival time, dose: 25.0 mg/kg/injection, schedule: Q04DX003 (ip), vehicle: saline with Tween-80 98 % of control | endpoint: mean survival time, dose: 50.0 mg/kg/injection, schedule: Q04DX003 (ip), vehicle: saline with Tween-80 107 % of control | [4] 110 % of control

CC(C)(C)OCC(N)C(=O)OC(C)(C)C (stereo not drawn)
inactive: [5] 93 % of control | [6] 103 % of control | [7] 96 % of control

CNC(=O)C(=O)NC
inactive: [1] 96 % of control | [4] 101 % of control | [2] 98 % of control | [8] 98 % of control | [3] 98 % of control | [9] 101 % of control

Cc1cc(Cc2ccc(N=C=O)c(C)c2)ccc1N=C=O
inactive: [4] 103 % of control | [2] 89 % of control | [8] 111 % of control | [3] 89 % of control | [9] 106 % of control

Nc1ccc(CCc2nc(N)[nH]c(=O)c2-c2ccc(Cl)cc2)cc1
inactive: endpoint: mean survival time, dose: 37.5 mg/kg/injection, schedule: Q01DX001 (ip), vehicle: saline with Tween-80 100 % of control | endpoint: mean survival time, dose: 75.0 mg/kg/injection, schedule: Q01DX001 (ip), vehicle: saline with Tween-80 91 % of control | endpoint: mean survival time, dose: 150.0 mg/kg/injection, schedule: Q01DX001 (ip), vehicle: saline with Tween-80 94 % of control

C[N+](C)(C)/N=C/c1ccc(Cl)cc1
inactive: [10] 93 % of control

Cc1ccccc1Nc1cc(=O)[nH]c(=O)[nH]1
inactive: endpoint: mean survival time, dose: 100.0 mg/kg/injection, schedule: Q01DX001 (ip), vehicle: saline with Tween-80 95 % of control | endpoint: mean survival time, dose: 200.0 mg/kg/injection, schedule: Q01DX001 (ip), vehicle: saline with Tween-80 95 % of control | endpoint: mean survival time, dose: 400.0 mg/kg/injection, schedule: Q01DX001 (ip), vehicle: saline with Tween-80 94 % of control

CCCCNC(=O)NC(=O)CCl
inactive: [5] 97 % of control | [6] 101 % of control | [7] 97 % of control

CCCC(CC(=O)O)(C(=O)O)c1ccccc1 (stereo not drawn)
inactive: endpoint: mean survival time, dose: 100.0 mg/kg/injection, schedule: Q01DX009 (ip), vehicle: other 108 % of control | endpoint: mean survival time, dose: 100.0 mg/kg/injection, schedule: Q04DX003 (ip), vehicle: other 93 % of control | endpoint: mean survival time, dose: 200.0 mg/kg/injection, schedule: Q01DX009 (ip), vehicle: other 91 % of control | endpoint: mean survival time, dose: 200.0 mg/kg/injection, schedule: Q04DX003 (ip), vehicle: other 97 % of control | endpoint: mean survival time, dose: 400.0 mg/kg/injection, schedule: Q01DX009 (ip), vehicle: other 91 % of control | endpoint: mean survival time, dose: 400.0 mg/kg/injection, schedule: Q04DX003 (ip), vehicle: other 98 % of control

CC(=O)C1C(=O)CC(C)(O)C(C(C)=O)C1c1ccccc1 (stereo not drawn)
inactive: [1] 93 % of control | [4] 101 % of control | [2] 96 % of control | [8] 101 % of control | [3] 94 % of control | [9] 103 % of control

CCCCOP(=O)(N=C=S)OCCCC
inactive: endpoint: mean survival time, dose: 25.0 mg/kg/injection, schedule: Q04DX002 (ip), vehicle: saline with Tween-80 94 % of control | [10] 102 % of control | [11] 90 % of control and 96 % of control

COc1ccc(-c2cc(C(=O)N/N=C/c3ccc([N+](=O)[O-])cc3)c3ccc(C)cc3n2)cc1OC
inactive: [1] 93 % of control | [2] 106 % of control | [3] 108 % of control

C[n+]1ccn(CC(=O)c2ccccc2)c1
inactive: endpoint: mean survival time, dose: 25.0 mg/kg/injection, schedule: Q01DX009 (ip), vehicle: saline 105 % of control | endpoint: mean survival time, dose: 50.0 mg/kg/injection, schedule: Q01DX009 (ip), vehicle: saline 103 % of control | endpoint: mean survival time, dose: 100.0 mg/kg/injection, schedule: Q01DX009 (ip), vehicle: saline 105 % of control | [5] 102 % of control

NNC(=O)c1nc2ccccc2s1
inactive: endpoint: mean survival time, dose: 37.5 mg/kg/injection, schedule: Q04DX003 (ip), vehicle: saline sonified 97 % of control | endpoint: mean survival time, dose: 75.0 mg/kg/injection, schedule: Q04DX003 (ip), vehicle: saline sonified 92 % of control | endpoint: mean survival time, dose: 150.0 mg/kg/injection, schedule: Q04DX003 (ip), vehicle: saline sonified 94 % of control

CCCc1ccc(NS(=O)(=O)c2ccc(C)cc2)cc1
inactive: endpoint: mean survival time, dose: 100.0 mg/kg/injection, schedule: Q04DX002 (ip), vehicle: Klucel (hydroxypropylcellulose) (HPC) 98 % of control | endpoint: mean survival time, dose: 200.0 mg/kg/injection, schedule: Q04DX002 (ip), vehicle: Klucel (hydroxypropylcellulose) (HPC) 103 % of control | endpoint: mean survival time, dose: 400.0 mg/kg/injection, schedule: Q04DX002 (ip), vehicle: Klucel (hydroxypropylcellulose) (HPC) 92 % of control

CC1C(=O)OC2C1CCC1(C)C=CC(=O)C(C)C21 (stereo not drawn)
inactive: endpoint: mean survival time, dose: 5.0 mg/kg/injection, schedule: Q04DX002 (ip), vehicle: saline with Tween-80 108 % of control | endpoint: mean survival time, dose: 10.0 mg/kg/injection, schedule: Q04DX002 (ip), vehicle: saline with Tween-80 100 % of control | endpoint: mean survival time, dose: 20.0 mg/kg/injection, schedule: Q04DX002 (ip), vehicle: saline with Tween-80 108 % of control | [11] 116 % of control | [12] 120 % of control

Nc1c(-c2ncc[nH]2)ncn1C1OC(CO)C(O)C1O (stereo not drawn)
inactive: [11] 109 % of control | [12] 97 % of control | [13] 102 % of control

NC(=S=O)C(N)=S=O
inactive: endpoint: median survival time, dose: 50.0 mg/kg/injection, schedule: Q01DX005 (ip), vehicle: saline with Tween-80 103 % of control | endpoint: median survival time, dose: 100.0 mg/kg/injection, schedule: Q01DX005 (ip), vehicle: saline with Tween-80 100 % of control | endpoint: median survival time, dose: 200.0 mg/kg/injection, schedule: Q01DX005 (ip), vehicle: saline with Tween-80 111 % of control | endpoint: median survival time, dose: 400.0 mg/kg/injection, schedule: Q01DX005 (ip), vehicle: saline with Tween-80 107 % of control

COCCCNC(=O)C1=CCCN(C)C1
inactive: [5] 95 % of control | [6] 96 % of control | [7] 94 % of control

Cc1c(Cl)c(Cl)c(Cl)c(-c2c(Cl)c(C)c(Cl)c(Cl)c2Cl)c1Cl
inactive: [5] 102 % of control | [6] 96 % of control | [7] 98 % of control

COC(=O)c1ccc(N=NN(C)C)cc1
inactive: endpoint: mean survival time, dose: 23.0 mg/kg/injection, schedule: Q01DX009 (ip), vehicle: Klucel (hydroxypropylcellulose) (HPC) 108 % of control | endpoint: mean survival time, dose: 39.0 mg/kg/injection, schedule: Q01DX009 (ip), vehicle: Klucel (hydroxypropylcellulose) (HPC) 108 % of control | endpoint: mean survival time, dose: 65.0 mg/kg/injection, schedule: Q01DX009 (ip), vehicle: Klucel (hydroxypropylcellulose) (HPC) 116 % of control

c1ccc(CCCNc2nnnc3ccccc23)cc1
inactive: [11] 95 % of control | [12] 103 % of control | [13] 91 % of control

O=C(O)CCc1nc2ccccc2c(=O)n1Cc1ccccc1
inactive: endpoint: mean survival time, dose: 100.0 mg/kg/injection, schedule: Q04DX003 (ip), vehicle: Klucel (hydroxypropylcellulose) (HPC) 106 % of control | endpoint: mean survival time, dose: 200.0 mg/kg/injection, schedule: Q04DX003 (ip), vehicle: Klucel (hydroxypropylcellulose) (HPC) 98 % of control | endpoint: mean survival time, dose: 400.0 mg/kg/injection, schedule: Q04DX003 (ip), vehicle: Klucel (hydroxypropylcellulose) (HPC) 95 % of control

O=C(Nc1ccc(F)c(Cl)c1)Oc1ccc(F)cc1Cl
inactive: [1] 103 % of control | [2] 104 % of control | [3] 92 % of control

O/N=C\c1ccc(/C=N/O)cc1
inactive: [4] 94 % of control | [8] 92 % of control

CCC(C(=N)C#N)[N+](=O)[O-] (stereo not drawn)
inactive: endpoint: mean survival time, dose: 100.0 mg/kg/injection, schedule: Q04DX002 (ip), vehicle: saline 91 % of control | endpoint: mean survival time, dose: 200.0 mg/kg/injection, schedule: Q04DX002 (ip), vehicle: saline 95 % of control | endpoint: mean survival time, dose: 400.0 mg/kg/injection, schedule: Q04DX002 (ip), vehicle: saline 91 % of control
